Structures can show the parent of a compound that is named as a salt. Where two headings read alike, the source gives them in different places.
What was measured:
[1] = 1 mg/kg intramuscular; cited from earlier work
Pseudomonas pseudomallei = assay: microbe, parasite or virus in culture; format: cell-based
Pseudomonas maltophilia = assay: Checkerboard broth dilution synergy study (mic); format: cell-based; details: Table III; for MIC: Stenotrophomonas maltophilia, read-out: mic, drug alone
[2] = cited from earlier work; for average peak serum concentration: 1 hour
Proteus rettgeri = assay: Checkerboard broth dilution synergy study (mic); format: cell-based; details: Table III; for MIC: Providencia rettgeri, read-out: mic, drug alone
Acinetobacter sp. = assay: Checkerboard broth dilution synergy study (mic); format: cell-based; details: Table III; for MIC: Acinetobacter, read-out: mic, drug alone
Serratia marcescens = assay: Checkerboard broth dilution synergy study (mic); format: cell-based; details: Table III; for MIC: Serratia marcescens, read-out: mic, drug alone
Klebsiella pneumoniae = assay: Checkerboard broth dilution synergy study (mic); format: cell-based; details: Table III; for MIC: Klebsiella pneumoniae, read-out: mic, drug alone
E. cloacae = assay: Checkerboard broth dilution synergy study (mic); format: cell-based; details: Table III; for MIC: Enterobacter cloacae, read-out: mic, drug alone
Pseudomonas aeruginosa = assay: Checkerboard broth dilution synergy study (mic); format: cell-based; details: Table III; for MIC: Pseudomonas aeruginosa, read-out: mic, drug alone

NC[C@H]1O[C@H](O[C@H]2[C@H](O)[C@@H](O[C@H]3O[C@H](CO)[C@@H](O)[C@H](N)[C@H]3O)[C@H](N)C[C@@H]2N)[C@H](N)C[C@@H]1O [tobramycin sulfate]
about 4 mcg/ml: maximum serum concentrations [1]

NCC[C@H](O)C(=O)N[C@@H]1C[C@H](N)[C@@H](O[C@H]2O[C@H](CN)[C@@H](O)[C@H](O)[C@H]2O)[C@H](O)[C@H]1O[C@H]1O[C@H](CO)[C@@H](O)[C@H](N)[C@H]1O [amikacin]
0.5 µg/mL: mic of each drug in combination I + A (E. cloacae; isolate 1296)
about 12 mcg/ml: average peak serum concentration ([2]; 250 mg (3.7 mg/kg) intramuscular)
32 µg/mL: MIC (Pseudomonas pseudomallei; Burkholderia pseudomallei, read-out: mic, drug alone) | MIC (E. cloacae; isolate McQuinn) | MIC (Pseudomonas aeruginosa; isolate 363)
750 ng/mL: serum level ([2]; 500 mg (7.5 mg/kg) infusion over 30 minutes, 10 hours post-infusion)
about 0.3 mcg/ml: serum level ([2]; 250 mg (3.7 mg/kg) intramuscular, 10 hours)
8 µg/mL: mic of each drug in combination I + A (Pseudomonas pseudomallei; Table III, isolate not named) | MIC (Proteus rettgeri; isolate 53) | MIC (Proteus rettgeri; isolate 997) | mic of each drug in combination I + A (Proteus rettgeri; isolate 1422) | MIC (Acinetobacter sp.; isolate 28-1) | MIC (Acinetobacter sp.; isolate 107) | mic of each drug in combination I + A (Acinetobacter sp.; isolate 28-1) | mic of each drug in combination I + A (Acinetobacter sp.; isolate 107) | MIC (Serratia marcescens; isolate 1414) | MIC (Klebsiella pneumoniae; isolate 214-1) | MIC (E. cloacae; isolate 1415)
18000 ng/mL: serum level ([2]; 500 mg (7.5 mg/kg) infusion over 30 minutes, 1 hour post-infusion)
2 µg/mL: MIC (Acinetobacter sp.; isolate 106) | MIC (Serratia marcescens; isolate B377) | mic of each drug in combination I + A (Serratia marcescens; isolate Ziegler) | MIC (Klebsiella pneumoniae; isolate 463) | mic of each drug in combination I + A (Klebsiella pneumoniae; isolate 1231) | MIC (E. cloacae; isolate 228) | mic of each drug in combination I + A (E. cloacae; isolate McQuinn) | mic of each drug in combination I + A (Pseudomonas aeruginosa; isolate 316-2) | mic of each drug in combination I + A (Pseudomonas aeruginosa; isolate 362) | mic of each drug in combination I + A (Pseudomonas aeruginosa; isolate 363)
~1200 ng/mL: serum level ([2]; 375 mg (5 mg/kg) intramuscular, 10 hours)
1 µg/mL: mic of each drug in combination I + A (Pseudomonas maltophilia; isolate 505) | mic of each drug in combination I + A (Proteus rettgeri; isolate 136-1) | MIC (Serratia marcescens; isolate 463-2) | MIC (Serratia marcescens; isolate 606) | MIC (E. cloacae; isolate 1253) | MIC (Pseudomonas aeruginosa; isolate 610) | mic of each drug in combination I + A (Pseudomonas aeruginosa; isolate 610)
~16 µg/mL: average peak serum concentration ([2]; 375 mg (5 mg/kg) intramuscular)
24000 ng/mL: serum level ([2]; 500 mg (7.5 mg/kg) infusion over 30 minutes, 30 minutes post-infusion)
38 µg/mL: mean peak serum concentration ([2]; 500 mg (7.5 mg/kg) infusion over 30 minutes, end of infusion)
> 64 µg/mL: MIC (Pseudomonas maltophilia; isolate 10) | MIC (Pseudomonas maltophilia; isolate 505)
~21 µg/mL: average peak serum concentration ([2]; 500 mg (7.5 mg/kg) intramuscular)
< 0.5 µg/mL: mic of each drug in combination I + A (Pseudomonas maltophilia; isolate 10) | mic of each drug in combination I + A (Proteus rettgeri; isolate 53) | mic of each drug in combination I + A (Proteus rettgeri; isolate 768) | mic of each drug in combination I + A (Proteus rettgeri; isolate 997) | mic of each drug in combination I + A (Acinetobacter sp.; isolate 28-2) | mic of each drug in combination I + A (Acinetobacter sp.; isolate 106) | mic of each drug in combination I + A (Acinetobacter sp.; isolate 109) | mic of each drug in combination I + A (Serratia marcescens; isolate 463-2) | mic of each drug in combination I + A (Serratia marcescens; isolate 606) | mic of each drug in combination I + A (Serratia marcescens; isolate 1414) | mic of each drug in combination I + A (Serratia marcescens; isolate B377) | mic of each drug in combination I + A (Klebsiella pneumoniae; isolate 130) | mic of each drug in combination I + A (Klebsiella pneumoniae; isolate 214-1) | mic of each drug in combination I + A (Klebsiella pneumoniae; isolate 463) | mic of each drug in combination I + A (Klebsiella pneumoniae; isolate 938) | mic of each drug in combination I + A (E. cloacae; isolate 228) | mic of each drug in combination I + A (E. cloacae; isolate 1253) | mic of each drug in combination I + A (E. cloacae; isolate 1415)
4 µg/mL: MIC (Proteus rettgeri; isolate 136-1) | MIC (Proteus rettgeri; isolate 1422) | MIC (Acinetobacter sp.; isolate 28-2) | MIC (Acinetobacter sp.; isolate 109) | MIC (Serratia marcescens; isolate Ziegler) | MIC (Klebsiella pneumoniae; isolate 130) | MIC (Klebsiella pneumoniae; isolate 938) | MIC (Klebsiella pneumoniae; isolate 1231) | MIC (E. cloacae; isolate 1296) | mic of each drug in combination I + A (Pseudomonas aeruginosa; isolate Brownlee)
16 µg/mL: MIC (Proteus rettgeri; isolate 768) | MIC (Pseudomonas aeruginosa; isolate 316-2) | MIC (Pseudomonas aeruginosa; isolate 362) | MIC (Pseudomonas aeruginosa; isolate Brownlee)
~2100 ng/mL: serum level ([2]; 500 mg (7.5 mg/kg) intramuscular, 10 hours)

— patent US4452778A, “Synergistic antibacterial compositions and method of treatment of infections caused by multiple antibiotic-resistant organisms” (Eli Lilly and Company, priority 1981, dated 1984)
